Tests used:
Assay in all cases: Ba/F3 drug screening, Cell Titer Glo, IC50 Mut/WT
Type in all cases: cell-based
[1] = biological target: T1, EGFR S784F (Homo sapiens, UniProt P00533, S784F); conditions: Classical-Like, 72 hours
T1 construct: expressed in transfected cells; host or cells: Ba/F3 cells, retroviral pBabe-Puro vector (vector made by GeneScript from EGFR WT)

[2] = biological target: T2, EGFR L858R/V834L (Homo sapiens, UniProt P00533, L858R/V834L); conditions: Classical-Like, 72 hours
T2 construct: expressed in transfected cells; host or cells: Ba/F3 cells, retroviral pBabe-Puro vector

[3] = biological target: T3, EGFR Ex19del (Homo sapiens, UniProt P00533, DEL746-750); conditions: Classical-Like, 72 hours
T3 construct: expressed in transfected cells; host or cells: Ba/F3 cells, retroviral pBabe-Puro vector
Method: (§1) Data represent the ratio of the IC50 value for a given TKI for cells with a classical-like EGFR mutation to the IC50 value for cells with wildtype EGFR.
(§2) Ba/F3 cell generation, drug screening, and IC50 approximations. Ba/F3 cells were obtained as a gift from Dr. Gordon Mills (MD Anderson Cancer Center), and maintained in RPMI (Sigma) containing 10% FBS, 1% penicillin/streptomycin, and 10 ng/ml recombinant mIL-3 (R&D Biosystems). To establish stable Ba/F3 cell lines, Ba/F3 cells were transduced with retroviruses containing mutant EGFR plasmids for 12-24 hours.
(§3) After 48-72 hours of transduction, 2 μg/ml puromycin (Invitrogen) was added to Ba/F3 cell lines in complete RPMI. To select for EGFR positive cell lines, cells were stained with PE-EGFR (Biolegend) and sorted by FACS. After sorting, EGFR positive cells were maintained in RPMI containing 10% FBS, 1% penicillin/streptomycin, and 1 ng/ml EGF to support cell viability. […] Shortly, cells were plated in 384-well plates (Greiner Bio-One) at 2000-3000 cells per well in technical triplicate. Seven different concentrations of TKIs or DMSO vehicle were added to reach a final volume of 40 μL per well. After 72 hours, 11 μL of Cell Titer Glo (Promega) was added to each well. Plates were incubated for a minimum of 10 minutes, and bioluminescence was determined using a FLUOstar OPTIMA plate reader (BMG LABTECH). Raw bioluminescence values were normalized to DMSO control treated cells, and values were plotted in GraphPad Prism. […] Drug screens were performed in technical triplicate on each plate and either duplicate or triplicate biological replicates.

[4] = biological target: T4, EGFR L858R (Homo sapiens, UniProt P00533, L858R); conditions: Classical-Like, 72 hours
T4 construct: expressed in transfected cells; host or cells: Ba/F3 cells, retroviral pBabe-Puro vector
Method: as §1, §2, §3

[5] = biological target: T5, EGFR T725M (Homo sapiens, UniProt P00533, T725M); conditions: Classical-Like, 72 hours
T5 construct: expressed in transfected cells; host or cells: Ba/F3 cells, retroviral pBabe-Puro vector (vector made by GeneScript from EGFR WT)

[6] = biological target: T6, EGFR S811F (Homo sapiens, UniProt P00533, S811F); conditions: Classical-Like, 72 hours
T6 construct: expressed in transfected cells; host or cells: Ba/F3 cells, retroviral pBabe-Puro vector (vector made by GeneScript from EGFR WT)

[7] = biological target: T7, EGFR A763insLQEA (Homo sapiens, UniProt P00533, INS763LQEA); conditions: Classical-Like, 72 hours
T7 construct: expressed in transfected cells; host or cells: Ba/F3 cells, retroviral pBabe-Puro vector
Method: as §1, §2, §3

[8] = biological target: T8, EGFR A767insASV (Homo sapiens, UniProt P00533, DUP767-769); conditions: Ex20, 72 hours
T8 construct: expressed in transfected cells; host or cells: Ba/F3 cells, retroviral pBabe-Puro vector

[9] = biological target: T9, EGFR D770insNPG (Homo sapiens, UniProt P00533, INS770NPG); conditions: Ex20, 72 hours
T9 construct: expressed in transfected cells; host or cells: Ba/F3 cells, retroviral pBabe-Puro vector

[10] = biological target: T10, EGFR L858R/T790M (Homo sapiens, UniProt P00533, L858R/T790M); conditions: T790M-like-3S, 72 hours
T10 construct: expressed in transfected cells; host or cells: Ba/F3
Method: Data represent the ratio of the IC50 value for a given TKI for cells with a T790M-like-3S EGFR mutation to the IC50 value for cells with wildtype EGFR.
as §2
(§4) After 48-72 hours of transduction, 2 μg/ml puromycin (Invitrogen) was added to Ba/F3 cell lines in complete RPMI. To select for EGFR positive cell lines, cells were stained with PE-EGFR (Biolegend) and sorted by FACS. After sorting, EGFR positive cells were maintained in RPMI containing 10% FBS, 1% penicillin/streptomycin, and 1 ng/ml EGF to support cell viability. Drug screening was performed as previously described^41,42. Shortly, cells were plated in 384-well plates (Greiner Bio-One) at 2000-3000 cells per well in technical triplicate. Seven different concentrations of TKIs or DMSO vehicle were added to reach a final volume of 40 μL per well. After 72 hours, 11 μL of Cell Titer Glo (Promega) was added to each well. Plates were incubated for a minimum of 10 minutes, and bioluminescence was determined using a FLUOstar OPTIMA plate reader (BMG LABTECH). Raw bioluminescence values were normalized to DMSO control treated cells, and values were plotted in GraphPad Prism. […] Drug screens were performed in technical triplicate on each plate and either duplicate or triplicate biological replicates.

[11] = biological target: T11, EGFR E709_T710del insD (Homo sapiens, UniProt P00533, DEL709-709/T710D); conditions: PACC; E709_T710del insD; Ba/F3; 72 hours
T11 construct: expressed in transfected cells; host or cells: Ba/F3

[12] = biological target: T12, EGFR E709K (Homo sapiens, UniProt P00533, E709K); conditions: PACC; E709K; Ba/F3; 72 hours
T12 construct: expressed in transfected cells; host or cells: Ba/F3

[13] = biological target: T13, EGFR L718V (Homo sapiens, UniProt P00533, L718V); conditions: PACC; L718V; Ba/F3; 72 hours
T13 construct: expressed in transfected cells; host or cells: Ba/F3
Method: (§5) Data represent the ratio of the IC50 value for a given TKI for cells with a PACC EGFR mutation to the IC50 value for cells with wildtype EGFR.
as §2, §4

[14] = biological target: T14, EGFR G719S (Homo sapiens, UniProt P00533, G719S); conditions: PACC; G719S; Ba/F3; 72 hours
T14 construct: expressed in transfected cells; host or cells: Ba/F3

[15] = biological target: T15, EGFR G719A (Homo sapiens, UniProt P00533, G719A); conditions: PACC; G719A; Ba/F3; 72 hours
T15 construct: expressed in transfected cells; host or cells: Ba/F3
Method: as §5, §2, §4

[16] = biological target: T16, EGFR G719A L861Q (Homo sapiens, UniProt P00533, G719A/L861Q); conditions: PACC; G719A L861Q; Ba/F3; 72 hours
T16 construct: expressed in transfected cells; host or cells: Ba/F3
Method: as §5, §2, §4

[17] = biological target: T17, EGFR L747S (Homo sapiens, UniProt P00533, L747S); conditions: PACC; L747S; Ba/F3; 72 hours
T17 construct: expressed in transfected cells; host or cells: Ba/F3

[18] = biological target: T18, EGFR K757R (Homo sapiens, UniProt P00533, K757R); conditions: PACC; K757R; Ba/F3; 72 hours
T18 construct: expressed in transfected cells; host or cells: Ba/F3

[19] = biological target: T19, EGFR S768I V774M (Homo sapiens, UniProt P00533, S768I/V774M); conditions: PACC; S768I V774M; Ba/F3; 72 hours
T19 construct: host or cells: Ba/F3

[20] = biological target: T20, EGFR L858R/L718V (Homo sapiens, UniProt P00533, L718V/L858R); conditions: PACC; L858R/L718V; Ba/F3; 72 hours
T20 construct: host or cells: Ba/F3

[21] = biological target: T21, EGFR Ex19del G724S (Homo sapiens, UniProt P00533, DEL746-750/G724S); conditions: PACC; Ex19del G724S; Ba/F3; 72 hours
T21 construct: expressed in transfected cells; host or cells: Ba/F3
Method: as §5, §2, §4

[22] = biological target: T22, EGFR L858R/L792H (Homo sapiens, UniProt P00533, L792H/L858R); conditions: PACC; L858R/L792H; Ba/F3; 72 hours
T22 construct: expressed in transfected cells; host or cells: Ba/F3

[23] = biological target: T23, EGFR L858R/C797S (Homo sapiens, UniProt P00533, C797S/L858R); conditions: PACC; L858R/C797S; Ba/F3; 72 hours
T23 construct: expressed in transfected cells; host or cells: Ba/F3

[24] = biological target: T24, EGFR Ex19del T854I (Homo sapiens, UniProt P00533, DEL746-750/T854I); conditions: PACC; Ex19del T854I; Ba/F3; 72 hours
T24 construct: expressed in transfected cells; host or cells: Ba/F3 (retroviral transduction, pBabe-Puro based vectors)

| ratio of IC50 for cells with mutant EGFR to IC50 for cells with wildtype EGFR (Mut/WT) [1] | ratio of IC50 for cells with mutant EGFR to IC50 for cells with wildtype EGFR (Mut/WT) [2] | ratio of IC50 for cells with mutant EGFR to IC50 for cells with wildtype EGFR (Mut/WT) [3] | ratio of IC50 for cells with mutant EGFR to IC50 for cells with wildtype EGFR (Mut/WT) [4] | ratio of IC50 for cells with mutant EGFR to IC50 for cells with wildtype EGFR (Mut/WT) [5] | ratio of IC50 for cells with mutant EGFR to IC50 for cells with wildtype EGFR (Mut/WT) [6] | ratio of IC50 for cells with mutant EGFR to IC50 for cells with wildtype EGFR (Mut/WT) [7] | ratio of IC50 for cells with mutant EGFR to IC50 for cells with wildtype EGFR (Mut/WT) [8] | ratio of IC50 for cells with mutant EGFR to IC50 for cells with wildtype EGFR (Mut/WT) [9] | ratio of IC50 for cells with mutant EGFR to IC50 for cells with wildtype EGFR (Mut/WT) [10] | ratio of IC50 for cells with mutant EGFR to IC50 for cells with wildtype EGFR (Mut/WT) [11] | ratio of IC50 for cells with mutant EGFR to IC50 for cells with wildtype EGFR (Mut/WT) [12] | ratio of IC50 for cells with mutant EGFR to IC50 for cells with wildtype EGFR (Mut/WT) [13] | ratio of IC50 for cells with mutant EGFR to IC50 for cells with wildtype EGFR (Mut/WT) [14] | ratio of IC50 for cells with mutant EGFR to IC50 for cells with wildtype EGFR (Mut/WT) [15] | ratio of IC50 for cells with mutant EGFR to IC50 for cells with wildtype EGFR (Mut/WT) [16] | ratio of IC50 for cells with mutant EGFR to IC50 for cells with wildtype EGFR (Mut/WT) [17] | ratio of IC50 for cells with mutant EGFR to IC50 for cells with wildtype EGFR (Mut/WT) [18] | ratio of IC50 for cells with mutant EGFR to IC50 for cells with wildtype EGFR (Mut/WT) [19] | ratio of IC50 for cells with mutant EGFR to IC50 for cells with wildtype EGFR (Mut/WT) [20] | SMILES | also measured |
| --- | --- | --- | --- | --- | --- | --- | --- | --- | --- | --- | --- | --- | --- | --- | --- | --- | --- | --- | --- | --- | --- |
| 0.0702 | 0.002241 | 0.0001195 | 0.00585 | 0.1059 | 0.006423 | 0.02905 | 4.154 | 3.835 | 6.744 | 0.2123 | 0.3129 | 0.6898 | 0.01105 | 0.1002 | 0.07458 | 0.08122 | 0.7085 | 0.2555 | 0.2408 | COc1cc2ncnc(Nc3cccc(Cl)c3F)c2cc1OC(=O)N1CCN(C)C[C@H]1C [AZD3759] | ratio of IC50 for cells with mutant EGFR to IC50 for cells with wildtype EGFR (Mut/WT) [21]: 4.812; ratio of IC50 for cells with mutant EGFR to IC50 for cells with wildtype EGFR (Mut/WT) [22]: 0.03125; ratio of IC50 for cells with mutant EGFR to IC50 for cells with wildtype EGFR (Mut/WT) [23]: 0.001895; ratio of IC50 for cells with mutant EGFR to IC50 for cells with wildtype EGFR (Mut/WT) [24]: 1.509 |
| 0.08997 | 0.009314 | 0.005832 | 0.002159 | 0.03062 | 0.1673 | 0.001484 | 3.057 | 5.404 | 10 | 0.08391 | 0.2711 | 0.1103 | 0.002178 | 0.001888 | 0.002249 | 0.006377 | 0.04087 | 0.1407 | 0.001529 | COc1cc2ncnc(Nc3ccc(F)c(Cl)c3)c2cc1NC(=O)/C=C/CN1CCCCC1 [Dacomitinib] | ratio of IC50 for cells with mutant EGFR to IC50 for cells with wildtype EGFR (Mut/WT) [21]: 0.1707; ratio of IC50 for cells with mutant EGFR to IC50 for cells with wildtype EGFR (Mut/WT) [22]: 0.002838; ratio of IC50 for cells with mutant EGFR to IC50 for cells with wildtype EGFR (Mut/WT) [23]: 0.04539; ratio of IC50 for cells with mutant EGFR to IC50 for cells with wildtype EGFR (Mut/WT) [24]: 0.4127 |
